Data taken from patent US20220315895A1, “METHODS OF MAKING OLIGOPOTENT AND UNIPOTENT PRECURSORS” (Transfusion Health, LLC, priority 2019, published 2022).

Legend:
[1] = system: expanded cord blood CD34+ cells, megakaryocyte lineage (CD41, CD42b); experiment: Megakaryocyte Differentiation Culture after Expansion Culture (Example 38); assay type: cell-based, human
Method: At days 21 and 63, CD34+ enriched cells were placed into Differentiation Cultures, described below.
Differentiation cultures were initiated using Erythroid, Myeloid (granulocyte and monocyte), and Megakaryocyte HemaTox kits from STEMCELL technologies following the manufacturer's instructions. In brief, lineage media was prepared by adding cytokine cocktails for erythrocyte (SCF, IL-3, and EPO), myeloid (i.e. mixed granulocyte/monocyte, SCF, TPO, G-CSF, and GM-CSF) or megakaryocyte (SCF, IL-6, IL-9 and TPO) lineage differentiation to their respective kits' media, then adding approximately 30-100 CD34+ cells for erythroid or myeloid cultures, or 300-1000 CD34+ cells for megakaryoid cultures. Exact cell numbers plated were quantified for later analysis. All incubations for Differentiation Culture took place at 3% oxygen (controlled by nitrogen) and 5% CO2.
Following seven days of erythroid or myeloid cultures, or ten days for megakaryoid cultures, differentiated cell output was quantified using flow cytometry. Erythroid output was quantified using anti-CD71 and anti-CD235a antibodies, and megakaryocyte lineage output was quantified using anti-CD41 and anti-CD42b antibodies. Granulocyte and monocyte lineage outputs were assessed in tandem, using CD14 and CD15 antibodies, with granulocyte lineage cells being CD15+/CD14−, and monocyte lineage cells being CD14+/CD15−.
A number of quantities were calculated to assess the effect of expansion of CD34+ cells in the +Formula I Condition on the output of lineage differentiated cells. “Per-Assayed-CD34+ Cell Output” describes the output of differentiated cells per CD34+ cell placed into Differentiation Culture, and is calculated by dividing the total number of lineage-positive cells by the input CD34+ cell number quantified at Differentiation Culture initiation at day 1, 21, or 63. […]

[2] = system: CD15+/CD14− cells; experiment: Phagocytosis assay with pHrodo green Staphylococcus aureus Bioparticles (Example 39); assay type: cell-based, human; conditions: +Formula I Granulocyte Differentiation Cultures, day 13; 45 minutes at 37° C.
Method: On day 13 of Granulocyte Differentiation Culture, a portion of the culture was removed for in vitro analysis of granulocyte function through two separate assays for phagocytosis and respiratory burst. In the phagocytosis assay, the function of the cultured cells in ingesting bacteria was measured. pHrodo green Staphylococcus aureus Bioparticles (ThermoFisher), which fluoresce only when in an acidic environment such as a cellular phagosome following phagocytosis, were first treated with an opsonizing reagent to mark the particles for phagocytosis. The particles were then added to cells and incubated at 37° C. for 45 minutes. “Ice” control samples were incubated on ice during this period to prevent endocytosis and enable a measure of background fluorescence. Following this incubation, cells were stained with antibodies to CD15 and CD14, washed thoroughly, then analyzed via flow cytometry on an Attune flow cytometer. CD15+/CD14− cells were quantified for presence of phagocytosed particles.

`CC(C)(C)C(=O)Nc1ccc2c(c1)C(O)c1ccccc1-2` (stereo not shown) [Compound 1.010] was tested, and the “fold increase of per-expanded-day-1-CD34+ cell output, total megakaryocyte lineage, over uncultured cells” value ([1]; +Formula I expansion to day 21, then 10 days differentiation) was 18 fold, the “fold increase of per-expanded-day-1-CD34+ cell output, total megakaryocyte lineage, over uncultured cells” value ([1]; +Formula I expansion to day 63, then 10 days differentiation) was 3,400 fold and the “CD42b+ cells of CD41+ cells” value ([1]; Formula I-expanded, either 21 or 63 days of prior Expansion Cell Culture, Megakaryocyte Differentiation Culture) was “approximately 50%”. For the same compound, the “CD15+ cells positive for phagocytosed particles” value [2] was 89%.
